Measured values as given in US7977364B2, “Indazoles, benzisoxazoles and benzisothiazoles and their use as estrogenic agents” (Laboratoire Thermamex, priority 2004, dated 2011).

Assays:
[1] = system: human endometrial adenocarcinoma Ishikawa cells; experiment: Estrogenic and anti-estrogenic activities in vitro: induction of alkaline phosphatase (APase) activity; type: cell-based
Outline: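 Ishikawa cells in phenol red-free DMEM with 5% charcoal-stripped dFCS; after incubation, APase measured via 5 mM p-nitrophenyl phosphate hydrolysis at pH 9.8, read at 405 nm after 15-60 min at room temperature. EC50 (estrogenic) and IC50 (anti-estrogenic) from sigmoidal dose-response curves.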

[2] = system: human breast cancer cell line MCF-7; experiment: Proliferative activity in vitro (ATP luminescence, 6 days); type: cell-based; conditions: Homo sapiens, MCF7, 144 h
Outline: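 Proliferative (estrogen-like) response of MCF-7 cells held in phenol red-free DMEM with 5% charcoal-stripped serum, seeded at 4.10^3 cells/well. Compounds in estrogen-free DMEM for six days at 37 °C. Viable cells by ATP luciferase luminescence as % of control; EC50 from sigmoidal dose-response curves.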

rats = experiment: Forced swimming test (antidepressant activity, immobility duration); type: in vivo, rat
Excerpt: Antidepressant effect of estradiol was recently reported in studies using ER β KO mice model. In addition, ER β localization in dorsal raphe nucleus area in rat has been described. The gold standard test for antidepressant potency of compound consist in the forced swimming test, in this experiment antidepressants could be distinguished from psychostimulants which decreased immobility at doses which increased general activity. In order to investigate the putative antidepressant potency of the compounds reported here, the forced swimming test was performed according to the following design. The animals were housed six per cage under standard colony conditions, with a 12 h light/dark cycle and ad libitum food and water. They were allowed to acclimatize to the colony for at least 7 days prior to any experimentation. For subcutaneous administration, the compound of Example 23 was dissolved in olive oil and diluted to the desired concentration on the day of administration. For positive control, intraperitoneal (i.p.) injection of desipramine was done. Desipramine was dissolved in double-distilled water (10 mg/kg). The experiments were conducted 30 min after the positive control drug treatment (only for desipramine treatment). Other compounds, ie: estradiol and the compound of Example 23 were daily injected subcutaneously in rats, during a 7 days period. Acquisition were performed on day 8 (24 h after the last administration of items) and day 9 (48 h after estradiol or compound 23 administration), respectively. Data acquired 24 hours after the last administration consisted in the “naïve animal group”, these animals had never been previously tested in the device. Data acquired 48 hours after a last administration of compounds consisted in “trained animal group”.
On the 8th, the forced swim test was performed. This study was carried out in rats according to the methods described by Porsolt (Eur. J. Pharm., 1978). Briefly, rats were placed individually in glass cylinders (height: 40 cm, diameter: 18 cm) containing 25 cm of water at 25° C. Ten minutes later, rats were removed and dried before being returned to their home cages. The animals were replaced in the cylinders 24 h later, and the procedure was repeated, and a 10-min observation period was recorded.

ovariectomized rats = conditions: rat, in vivo

EC50 ([1]; Homo sapiens, Ishikawa, 96 h, compound alone, four days, ND = not detected, read-out: Estrogenic activity EC50 (nM) ± S.E.M): 1700 ± 168 nM
EC50 ([2]; MCF-7, six days, read-out: Cell proliferation EC50 (nM) ± S.E.M): 376 ± 70.1 nM
Structure (SMILES): Oc1ccc2c(C3CCCC3)n[nH]c2c1 [Ex 23, 3-cyclopentyl-1H-indazol-6-ol]
estrogenic effect in alkaline phosphatase activity in the Ishikawa cell model ([1]; in words): weak estrogenic effect
activity at 1 µM ([2]; MCF-7, 10^−6 M, six days, read-out: Effect at 10^−6 M (% of control)): 176%
activity at 0.01 µM ([2]; MCF-7, 10^−8 M, six days, read-out: Effect at 10^−8 M (% of control)): 81.7%
immobility duration, Naïve animals (rats; 2.8 mg/rat/day s.c. 7 days, 24 h after last administration, 10 minutes test): 45.2 ± 15.6 s
immobility duration, Trained animals (rats; 2.8 mg/rat/day s.c. 7 days, 48 h after last administration, 10 minutes test): 160.7 ± 44.1 s
antidepressor activity, animals first-in-the-test (rats; 24 h after administration, in words): exhibited a antidepressor activity
antidepressor potency, trained animal group (rats; 48 h after administration, in words): disappeared
side-effects on uteri (ovariectomized rats): without deleterious side-effects on uteri
